# Assay results: patent US20260191889A1, “TREHALOSE FOR TREATING HUNTINGTON'S DISEASE” (GLD Debt Acquisition 2025-1, priority 2022, published 2026)
# Legend:
# DARPP-32 = DARPP-32 immunohistochemistry in brain of R6/2 mice; assay type: in vivo, Mus musculus; conditions: MT-treated vs untreated transgenic R6/2 mice, FIG. 1
# Experimental: (§1) Cryosectioning—Cryosectioning was performed to striatal (left hemisphere) (Bregma +1.30 mm to −0.8 mm from Bregma, containing the infusion site at +0.5 mm) region and sections were collected as 20 μm thick sections on slides. A series of sections consisted of 8 sections with an interval of 300 μm in-between each section. A total of 5 series were collected from the target region using subsequent slides. For phase I, Series 1 & 3 were used for IHC analysis of EM48, series 2 was used for Darpp-32, series 4 was used for Iba1+GFAP and Series 5 was used for piloting and negative controls. For phase II, A total of 6 series were collected from the target region using subsequent slides. Series 1 was used for IHC analysis of EM48, series 2 was used for Darpp-32, series 4 was used for Iba1+GFAP. Series 5 was collected as spare samples and series 6 was used for piloting and negative controls. […]
# (§2) Antigen expression analyses—The stained sections were scanned with the Olympus VS120 slide scanner using the proper fluorescent or brightfield channels. The regions of interest (ROIs) (striatum/cortex) were analyzed for positive immunostaining of the respective targets (EM48, DARPP-32, GFAP and Iba1) applying the VIS—Visiopharm Integrator System (Visiopharm, Denmark).
# (§3) Positive staining of the respective antigens was detected by applying a suitable threshold which recognizes only truly positive staining. […]
# Iba-1 = Iba-1 immunohistochemistry in brain of R6/2 mice; assay type: in vivo, Mus musculus; conditions: MT-treated vs untreated transgenic R6/2 mice, FIG. 5
# Experimental: as §1, with “Iba1+GFAP.” for “Iba1+GFAP. Series 5 was collected as spare samples and series 6 was used for piloting and negative controls.”
# For fluorescence immunohistochemistry (GFAP and Iba-1) the following general protocol was applied: […]
# as §2, §3
# [1] = system: neurofilament light chain (NfL) protein; assay: NfL concentration in blood serum of a subject with HD on weekly IV trehalose; assay type: in vivo, human; conditions: subject 02-001 (HD)
# Experimental: This study consisted of a 2-week screening period, a 24-week open-label treatment period, and a 2-week safety follow-up period. Eligible subjects received substantially purified trehalose, administered as a once weekly IV infusion over 60 minutes±5 min for volumes≤600 mL or 90 minutes±5 min for volumes>600 mL. The total volume of the infusion was based on the weight of the subject and a dose of 0.75 g trehalose per kg of subject weight (g/kg). An additional 52 weeks of open-label trehalose treatment was planned for consenting subjects who were determined to be medically appropriate after their completion of the primary 24-week open-label treatment period.
# Blood samples were obtained from subjects at the screening/baseline and during week 12 and week 24 for analyses. Blood serum was to determine the concentration of neurofilament light chain (NfL) protein in blood serum before and after initiation of trehalose treatment. Nfl concentrations in blood serum were measured using a Simoa® NF-light™ Advantage Kit by Quanterix. Higher concentrations of Nfl in subject blood serum is an indicator of clinical severity of HD, and lower concentrations compared to concentrations of the same subject indicates reversal or slowing of HD progression.
compound,measurement,setting,value
"OC[C@H]1O[C@H](O[C@H]2O[C@H](CO)[C@@H](O)[C@H](O)[C@H]2O)[C@H](O)[C@@H](O)[C@@H]1O [MT, trehalose]","levels of DARPP-32 in the striatum (IHC, positive cells/mm^2)",DARPP-32,lower levels
same,"levels of Iba-1 in the striatum (IHC, % staining area)",Iba-1,lower levels
same,NfL Protein Concentration,[1]; Screening / Day 0 (baseline before treatment),21.20 pg/mL
same,NfL Protein Concentration,"[1]; Week 12 / Day 84, 0.75 g/kg IV once weekly",17.55 pg/mL
same,NfL Protein Concentration,"[1]; Week 24 / Day 168, 0.75 g/kg IV once weekly",19.95 pg/mL
